Measured values from PubChem BioAssay (NCI).
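Each compound was tested at five concentrations against cells in 96-well plates for 48 hours. Abbreviation: GI50, concentration required for 50% inhibition of growth. Definition used: TGI = concentration required for complete inhibition of growth.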 Where a SMILES comes first, the peptide text is derived from it.

What was measured:
Experiment in all cases: NCI anticancer screen, dose series, 48 h
[1] = system: UACC-62 melanoma
[2] = system: A549 NSCLC
[3] = system: NCI-H522 lung
[4] = system: SK-MEL-2 melanoma
[5] = system: T-47D breast
[6] = system: SNB-75 CNS
[7] = system: MDA-N
[8] = system: BT-549 breast
[9] = system: 786-0 renal
[10] = system: DMS 114 small cell lung
[11] = system: SNB-78 CNS
[12] = system: HOP-18 NSCLC

SMILES	TGI [1] [µM]	TGI [2] [µM]	TGI [3] [µM]	TGI [4] [µM]	TGI [5] [µM]	TGI [6] [µM]	TGI [7] [µM]	TGI [8] [µM]	TGI [9] [µM]	TGI [10] [µM]	TGI [11] [µM]	TGI [12] [µM]	GI50 [1] [µM]	GI50 [2] [µM]	GI50 [4] [µM]	GI50 [5] [µM]	GI50 [8] [µM]	GI50 [3] [µM]	GI50 [12] [µM]	GI50 [6] [µM]
CCOC(=O)C12CC(C)=C(C)CC1CCCc1ccccc12 (stereo not given)	> 100	> 100	39.5	31.6	55.5	71.1	86.6	> 100	> 100	–	–	–	–	–	–	–	–	–	–	–
COP(=O)(OC)[C@H](O)[C@H]1C[C@@H]1c1ccccc1	> 100	> 100	> 100	> 100	> 100	> 100	–	> 100	–	–	–	–	–	–	–	–	–	–	–	–
COc1ccc(N=Cc2ccc(N(CCC#N)S(=O)(=O)c3ccccc3)cc2C)cc1	> 100	> 100	> 100	67.8	–	> 100	–	–	–	> 100	> 100	> 100	–	–	–	–	–	–	–	–
COc1cc(C2C(=O)C(Cl)N2Nc2nc(C)cc(=O)[nH]2)cc(OC)c1OC (stereo not given)	–	> 100	–	25.2	–	43.3	–	–	–	–	65.8	28.1	–	–	–	–	–	–	–	–
Cc1ccc2c3c1[C@@H]1O[C@@H]1c1cccc(c1-3)[C@@H]1O[C@H]21	40.2	34.1	29.6	33.7	20.9	15.7	30.5	32.7	–	–	–	–	–	–	–	–	–	–	–	–
COc1cccc(NC(=O)CC(=O)NN2C(=O)/C(=C/c3ccc(N(CCC#N)CCC#N)cc3)N=C2c2cc([N+](=O)[O-])ccc2Cl)c1	> 100	> 100	> 100	> 100	–	–	–	–	–	> 100	> 100	–	–	–	–	–	–	–	–	–
Cc1cn(Cc2cn(CC3OC(n4cc(C)c(=O)[nH]c4=O)CC3O)nn2)c(=O)[nH]c1=O (stereo not given)	> 100	> 100	–	> 100	> 100	> 100	> 100	> 100	–	–	–	–	–	–	–	–	–	–	–	–
COc1ccc(N=Nc2c(N)nn(C)c2N)cc1	> 100	> 100	> 100	> 100	–	> 100	–	–	> 100	> 100	> 100	> 100	–	–	–	–	–	–	–	–
CCCCCCCCCCCCSC(=S)c1c(C)[nH]n(CCCCCCCCCCCC)c1=O	> 100	> 100	> 100	> 100	–	> 100	–	–	–	> 100	> 100	> 100	–	–	–	–	–	–	–	–
COC(=O)c1ccc2c(c1)sc1nc(-c3ccc(OC)cc3)cn12	> 100	> 100	> 100	> 100	> 100	> 100	> 100	> 100	> 100	–	–	–	–	–	–	–	–	–	–	–
CCCC[C@H]1C(=O)O[C@H](C)[C@H](NC(=O)c2cccc(NC=O)c2OC)C(=O)O[C@@H](C)[C@@H]1OC(=O)CC(C)C (tested in a mixture with another compound)	18.5	23	21	29	44.5	17.9	50.3	40.1	29.3	–	–	–	–	–	–	–	–	–	–	–
CCC(C)C(NC(=O)C(CC(C)C)NC(=O)CNC(=O)C(NC(=O)C1CCCN1C(=O)C(CC(C)C)NC(=O)C(N)Cc1ccccc1)C(C)CC)C(=O)NC(CC(C)C)C(N)=O (stereo not given) (H-FLPIGLIL-NH2; configuration not given here)	> 75	> 75	> 75	> 75	> 75	–	> 75	> 75	> 75	–	–	–	–	–	–	–	–	–	–	–
COc1ccc2c(c1)CCCc1c-2nc2ccccc2c1N	25.4	25.7	28	29.1	31.3	22.6	21.9	31	18.5	–	–	–	–	–	–	–	–	–	–	–
O=C(CSSCC(=O)OCCS(=O)(=O)Nc1ccc(Br)cc1)OCCS(=O)(=O)Nc1ccc(Br)cc1	34.6	> 100	24	79.6	–	66.6	–	–	–	29.3	71.3	> 100	–	–	–	–	–	–	–	–
O=c1c(-c2ccccc2)c(SCCN2CCOCC2)n(-c2ccccc2)c(=S)n1-c1ccccc1	> 100	–	> 100	> 100	–	87.6	–	> 100	–	–	–	–	–	–	–	–	–	–	–	–
CCCCCCCCCCCCCCCCCC(=O)OCC1OC(OC)C(NC(=O)N(CCCl)N=O)C(O)C1O (stereo not given)	23.3	52.1	38.3	> 100	–	41.6	–	–	–	–	> 100	> 100	–	–	–	–	–	–	–	–
O=c1[nH]c(=O)n(CCOCP(=O)(O)O)nc1Br	–	> 100	> 100	> 100	> 100	> 100	> 100	> 100	–	–	–	–	–	–	–	–	–	–	–	–

SMILES	TGI [1] [µM]	TGI [2] [µM]	TGI [3] [µM]	TGI [4] [µM]	TGI [5] [µM]	TGI [6] [µM]	TGI [7] [µM]	TGI [8] [µM]	TGI [9] [µM]	TGI [10] [µM]	TGI [11] [µM]	TGI [12] [µM]	GI50 [1] [µM]	GI50 [2] [µM]	GI50 [4] [µM]	GI50 [5] [µM]	GI50 [8] [µM]	GI50 [3] [µM]	GI50 [12] [µM]	GI50 [6] [µM]
Cc1cc(=O)n2c3c(c4c(cc13)c(CN(C)C)cc(=O)n4C)OC2	30.1	> 55.1	28.4	41.6	> 100	58.6	> 87.7	83.8	> 100	–	–	–	–	–	–	–	–	–	–	–
NC(=O)CCSC(CC(=O)c1ccc(Cl)cc1)c1ccc(Cl)cc1 (stereo not given)	56	> 100	80.3	69.2	57.3	90.7	59.8	80	> 100	–	–	–	–	–	–	–	–	–	–	–
Cn1c(=O)ccc2c(=O)c3ccccc3oc21	> 100	> 100	> 100	> 100	> 100	–	> 100	–	–	–	–	–	–	–	–	–	–	–	–	–
O=S(=O)(O)c1ccc2c(N=Nc3ccccc3)c(O)ccc2c1	> 100	> 100	> 100	> 100	> 100	> 100	> 100	> 100	> 100	–	–	–	–	–	–	–	–	–	–	–
COc1cc(/C=C2\N=C(c3ccccc3)N(c3nc4ccc(Sc5ccccc5)cc4[nH]3)C2=O)cc(OC)c1OC	38.7	> 100	48	33	> 100	> 100	24.7	55.1	42.4	–	–	–	–	–	–	–	–	–	–	–
Cn1c2cn[nH]c(=O)c2c2ccc3ccccc3c21	> 100	> 100	59.5	46.7	> 100	38.3	> 100	> 100	42.1	–	–	–	–	–	–	–	–	–	–	–
O=C(O)CCCN=C(C1=C(O)C(=O)N(c2ccccc2)C1=O)c1ccccc1	> 100	> 100	> 100	> 100	> 100	> 100	> 100	> 100	> 100	–	–	–	–	–	–	–	–	–	–	–
O=c1[nH]c2cc([N+](=O)[O-])c(N/N=C/c3ccc(Cl)cc3Cl)c([N+](=O)[O-])c2[nH]1	> 100	> 100	94	> 100	> 100	> 100	> 100	> 100	> 100	–	–	–	–	–	–	–	–	–	–	–
N=C(N)c1ccc(N=Nc2c(O)ccc3cc4c(N=Nc5ccc(C(=N)N)cc5)c(O)ccc4cc23)cc1	> 100	> 100	> 100	> 100	> 100	> 100	> 100	> 100	> 100	–	–	–	–	–	–	–	–	–	–	–
C=C1c2nc3ccccc3n2C=C(c2ccc(Cl)cc2)N1c1ccc(OCCN2CCCCC2)cc1	> 100	> 100	45	> 100	> 100	–	45	> 100	> 45	–	–	–	> 100	> 100	> 100	> 100	> 100	–	–	–
Cc1ccc(C(=O)Nc2ncn(C3CC(O)C(CO)O3)c(=O)n2)cc1 (stereo not given)	> 100	> 100	> 100	> 100	–	> 100	–	–	–	> 100	> 100	> 100	–	–	–	–	–	–	–	–
N#Cc1c(-c2ccc(Cl)cc2)c2c([nH]c1=O)-c1cc([N+](=O)[O-])ccc1CCC2	32.4	82.9	41.8	43.4	> 100	78.3	> 100	36.3	79.9	–	–	–	–	–	–	–	–	–	–	–
O=C([CH-]C(=O)c1ccccc1)c1ccccc1.O=C([CH-]C(=O)c1ccccc1)c1ccccc1.O=C([CH-]C(=O)c1ccccc1)c1ccccc1.[Cl-].[Hf+4]	> 100	86.2	62.8	–	–	> 100	–	–	–	–	–	24.8	14.6	16.7	–	–	–	12.6	5.66	9.43
C/C(=C\C(=N\NC(=N)N)c1ccccc1)c1ccccc1	3.23	16.9	1.76	–	2.81	17.3	2.7	–	11.3	–	–	–	–	–	–	–	–	–	–	–
O=CN1CCC23CC(O)CCC2C1Cc1cc(Oc2nnnn2-c2ccccc2)cc(O)c13 (stereo not given)	> 100	> 100	> 100	> 100	> 100	> 100	> 100	> 100	> 100	–	–	–	–	–	–	–	–	–	–	–
CCN(CCO)CCNc1ccc(C)c2sc3ccccc3c(=O)c12	3.34	15.2	11.4	9.33	7.43	12	3.16	26.7	8.57	20.6	20.6	24.3	–	–	–	–	–	–	–	–
C=C1CC2C3C=C(C)C4=CC(=O)CC[C@]4(C)C3CC[C@]2(C)[C@@]1(OC(C)=O)C(C)=O (stereo not given in full)	> 100	> 100	> 100	> 100	–	> 100	–	–	–	–	–	–	3.38	2.63	> 100	–	–	4.21	–	8.76
